Read-outs that look alike come from different tables or passages of the source.

The IC50 is the concentration needed to halve the response being measured. Low readings indicate inhibition by little substance, high ones a need for much substance. As a reminder, the solubility is the concentration that dissolves in the medium under given conditions.

One series has as its system C57Bl/6J mice. Nature of the series: Ulcer core perfusion of full thickness excisional cutaneous wounds by LSCI/LASCA. The format is in vivo. The note with it: single dose 25 μl per wound, almost all times of measurements. The method, then:
Effects of a single dose of Topical Composition A2, Topical Composition A4, and Vehicle Composition A, when administered on the perfusion of the ulcer core of full thickness excisional cutaneous wounds in C57B1/6J mice was investigated. Thus, Topical Compositions A2 and A4 were applied in a dose volume of 25 μl per wound. Each individual mouse had surgery for two wounds located symmetrical to the dorsal midline using 8 mm diameter punch biopsy devices.
Topical Compositions A2 and A4 or Vehicle Composition A were randomly administered to one or the other wound under a blinded protocol. This procedure enabled an intra-individual comparison between Compound 1 and its composition vehicle. Perfusion of the ulcer core as well as of the periulcer region was separately measured by Laser Speckle Contrast Imaging (LSCI)/Laser Speckle Contrast Analysis (LASCA) using a Perimed device. LASCA wound perfusion measurements of digital ulcers in SSc were previously shown to correlate with time to healing (Barsotti S et al Clin Rheumatol. (2020) 39(1):69-75).
In detail, a single application of Topical Compositions A2 and A4 or Vehicle Composition A, each at a volume of 25 μl per wound was randomly administered either to the right or left of two full thickness cutaneous wounds per mouse generated by 8 mm punch biopsies and symmetrically to the dorsal midline, at 24 h after surgery. […]

The target in another series is PDE5 (Homo sapiens, UniProt O76074). The experiment in a line: IC50 of Compound 1 (earlier effected measurements). The series is classed as biochemical.
A short description of series [1]: Solubility of Compound 1 in solvent systems comprising PEG400. The format is physicochemical. The conditions noted are these: room temperature, read-out: Determined Solubility. From the text:
A solubility study of Compound 1 in solvent systems comprising PEG400 in various concentrations was effected.

For a further series, the system named is rat aortic rings. The experiment in a line: Relaxation of rat aortic rings. The conditions noted are these: earlier effected measurements.

Regarding `CCCOc1ccc(S(=O)(=O)N2CCC(CCO[N+](=O)[O-])CC2)cc1-c1nn2c(CCC)c(/C=N/O)c(C)c2c(=O)[nH]1` [Compound 1, 2-[1-(3-{6-[(1E)-(hydroxyimino)methyl]-5-methyl-4-oxo-7-propyl-3H,4H-pyrrolo[2,1-f][1,2,4]triazin-2-yl}-4-propoxybenzenesulfonyl)piperidin-4-yl]ethyl nitrate], the “ulcer core perfusion compared to Vehicle Composition A” value in the series with C57Bl/6J mice is given as “increases perfusion of ulcer core”. Moreover, on PDE5, the IC50 amounted to 1.18 nM. Further, the solubility in series [1] (aqueous with cosolvent or surfactant or cyclodextrin, PEG400:benzyl alcohol:phosphate buffer (44:1:55) vol:vol, Phosphate buffer 12 mmol/L pH 6.7) was 0.000861 mg/mL; in series [1] (aqueous with cosolvent or surfactant or cyclodextrin, PEG400:benzyl alcohol:phosphate buffer (49:1:50) vol:vol, Phosphate buffer 12 mmol/L pH 6.7), 0.00218 mg/mL; in series [1] (aqueous with cosolvent or surfactant or cyclodextrin, PEG400:benzyl alcohol:phosphate buffer (54:1:45) vol:vol, Phosphate buffer 12 mmol/L pH 6.7), 0.005 mg/mL; in series [1] (aqueous with cosolvent or surfactant or cyclodextrin, PEG400:benzyl alcohol:phosphate buffer (59:1:40) vol:vol, Phosphate buffer 12 mmol/L pH 6.7) it was 0.0128 mg/mL; in series [1] (aqueous with cosolvent or surfactant or cyclodextrin, PEG400:benzyl alcohol:phosphate buffer (64:1:35) vol:vol, Phosphate buffer 12 mmol/L pH 6.7), 0.037 mg/mL; in series [1] (aqueous with cosolvent or surfactant or cyclodextrin, PEG400:benzyl alcohol:phosphate buffer (69:1:30) vol:vol, Phosphate buffer 12 mmol/L pH 6.7), 0.112 mg/mL. The solubility in series [1] (aqueous with cosolvent or surfactant or cyclodextrin, PEG400:benzyl alcohol:phosphate buffer (79:1:20) vol:vol, Phosphate buffer 12 mmol/L pH 6.7) was determined as 0.882 mg/mL; in series [1] (aqueous with cosolvent or surfactant or cyclodextrin, PEG400:benzyl alcohol:phosphate buffer (89:1:10) vol:vol, Phosphate buffer 12 mmol/L pH 6.7), 1.77 mg/mL; in series [1] (organic solvent or mixture, PEG400:benzyl alcohol (99:1) vol:vol), 12.7 mg/mL. In addition, the “IC40 for relaxation of rat aortic rings” value in the series on rat aortic rings came out at 8000 nM.

The values are drawn from patent US20250000869A1, “TOPICAL COMPOSITIONS OF 2-PHENYL-3, 4-DIHYDROPYRROLO [2, L-F] [1, 2, 4] TRIAZINONE DERIVATIVES AND USES THEREOF” (TOPADUR PHARMA AG, priority 2021, published 2025).
